Experimental data reported in the OPERA property sets (Mansouri et al. 2018).

Settings: not given

SMILES | melting point [°C] | boiling point [°C] | log10 vapour pressure (mmHg) | ready biodegradability | log10 Henry constant (atm·m³/mol) | log10 Koc (L/kg)
CCN(CC)CCNC(=O)c1cc(S(C)(=O)=O)ccc1OC | 124 |  |  |  |  | 
c1cnc2ncncc2n1 | 140 |  |  |  |  | 
CCC=CC(C)(C)C |  | 103 |  |  |  | 
O=[N+]([O-])c1ccc(Nc2ccccc2)c([N+](=O)[O-])c1 | 159 |  | -8.52 |  |  | 
O=Cc1cc([N+](=O)[O-])ccc1O | 129 |  |  |  |  | 
CCC(O)C(CC(C)N(C)C)(c1ccccc1)c1ccccc1 (stereo not drawn) | 127 |  |  |  |  | 
C=CCN=C=O |  | 88 |  |  |  | 
CC(=O)OCC(=O)O | 67.5 |  |  |  |  | 
CC(CCl)CBr (stereo not drawn) |  | 155 |  |  |  | 
Cc1cccc(CO)c1 |  | 216 |  |  |  | 
CCC(=O)OCc1ccco1 |  | 195 |  |  |  | 
FC(Br)(Br)Br | -73.6 | 108 |  |  |  | 
CC(=O)c1ccsc1 | 60 | 210 |  |  |  | 
CCCC(C)(CO)CO | 62.5 | 234 |  |  |  | 
CCCCCCCCCCC(=O)OCC | -15 |  | -2.37 |  |  | 
CC[N+](CC)(CC)CCOC(=O)C(C1CCCC1)C1CCCC1.[Br-] | 186 |  |  |  |  | 
CCC1(c2ccccc2)C(=O)NC(=O)NC1=O | 174 |  |  | not readily biodegradable |  | 
CN(C)c1ccncc1 | 112 |  |  |  |  | 
Cc1nn(C)c(OCC(=O)c2ccccc2)c1C(=O)c1ccc(Cl)cc1Cl | 112 |  | -6.44 |  |  | 

SMILES | melting point [°C] | boiling point [°C] | log10 vapour pressure (mmHg) | ready biodegradability | log10 Henry constant (atm·m³/mol) | log10 Koc (L/kg)
N#C/C=C(\Cl)C#N | 60.5 | 172 |  |  |  | 
CC(=O)OOC(C)=O | 30 |  |  |  |  | 
ClC1=C(Cl)C2(Cl)C3C(Cl)C(Cl)CC3C1(Cl)C2(Cl)Cl (stereo not drawn) | 106 |  | -4.69 | not readily biodegradable | -3.53 | 4.78
O=Cc1ccc(Br)cc1 | 67 |  |  |  |  | 
C=CC(=O)NC(C)C | 64 |  |  |  |  | 
C=CCc1cc(OC)c2c(c1OC)OCO2 | 29.5 | 294 |  |  |  | 
COP(=S)(OC)Oc1ccc([N+](=O)[O-])cc1Cl | 52.5 |  | -5.44 |  |  | 
CC1Cc2ccccc2O1 (stereo not drawn) |  | 198 |  |  |  | 
Nc1cccc(C(F)(F)F)c1 | 5.5 | 187 |  |  |  | 2.36
C=CC(=C)CCC=C(C)C |  | 167 | 0.304 | readily biodegradable |  | 
CC(Br)C(C)Br (stereo not drawn) | -24 | 161 | 0.58 |  |  | 
O=C(O)Cc1cccnc1 | 144 |  |  |  |  | 
CCC/C=C/CCCCCC | -80.3 | 193 |  |  |  | 
CCCCCCCCCCCCC(=O)OC | 6.5 |  | -2.89 |  |  | 
O=C(O)[C@@H]1CCc2ccccc2C1 | 97.7 |  |  |  |  | 
OCCn1ccnc1 | 39 |  |  |  |  | 
IC(I)=C(I)I | 187 |  |  |  |  | 
CSC(=O)c1c(C(F)F)nc(C(F)(F)F)c(C(=O)SC)c1CC(C)C | 65 |  |  |  |  | 
O=C=O | -56.5 | -78.5 | 4.68 |  |  | 

SMILES | melting point [°C] | boiling point [°C] | log10 vapour pressure (mmHg) | ready biodegradability | log10 Henry constant (atm·m³/mol) | log10 Koc (L/kg)
CNc1ccccc1C(=O)O | 180 |  |  | readily biodegradable |  | 
Clc1cccc(C(Cl)(Cl)Cl)c1 | 0.6 | 255 |  |  |  | 
CC(C)(C)c1cc(CO)cc(C(C)(C)C)c1O | 140 |  |  | not readily biodegradable |  | 
Nc1c(Oc2ccc(Br)cc2)cc(O)c2c1C(=O)c1ccccc1C2=O |  |  |  | not readily biodegradable |  | 
COc1ccc(C[C@H]2c3cc(OC)c(OC)cc3CCN2C)cc1OC | 89 |  |  |  |  | 
C1COCCOCCOCCO1 | 16 |  |  |  |  | 
COCCN(C(=O)CCl)c1c(C)cccc1C | 46 | 320 | -4.95 |  |  | 
CC(C)(C)SSC(C)(C)C | -5 |  |  |  |  | 
O=CNC(O)C(Cl)(Cl)Cl (stereo not drawn) | 120 |  |  |  |  | 
CN(C)[C@@H]1C(O)=C(C(N)=O)C(=O)[C@@]2(O)C(O)=C3C(=O)c4c(O)ccc(Cl)c4[C@@](C)(O)[C@H]3C[C@@H]12 | 168 |  |  |  |  | 
C=C(C)C(=O)OCCN(C)C | -30 | 186 |  |  |  | 
COc1c2occc2cc2ccc(=O)oc12 | 148 |  |  | not readily biodegradable |  | 
CC(C)COC(C)OCC(C)C |  | 171 |  |  |  | 
CC(C)C(O)C(C)(C)C (stereo not drawn) | -13 | 150 |  |  |  | 
CC(=O)OC1CCC(C(C)(C)C)CC1 (stereo not drawn) | -50 |  | -2.12 |  |  | 
C=C/C=C\CC1=C(C)[C@@H](OC(=O)[C@@H]2[C@@H](/C=C(\C)C(=O)OC)C2(C)C)CC1=O |  |  | -6.4 |  |  | 
NCC1CCCC(CN)C1 (stereo not drawn) |  | 220 |  | not readily biodegradable |  | 
CCNc1nc(NC(C)C)nc(OC)n1 |  |  | -5.54 |  |  | 2.64

Same assay, conditions: fish

SMILES | log10 BCF | log10 biotransformation half-life (days)
O=S(=O)([O][Na])c1ccc2cc(O)c(S(=O)(=O)[O][Na])cc2c1 | 0.3 | 
OC(c1ccccc1)c1ccc(Cl)cc1 (stereo not drawn) | 1.79 | -0.89
CCCCCl | 1.23 | -0.45
COP(=S)(OC)Oc1ccc([N+](=O)[O-])c(Cl)c1 | 1.55 | -0.47
CC(C)C(O)C(C)(C)CO (stereo not drawn) | 0 | -1.34
c1ccoc1 | 0.7 | -0.84
Clc1ccc(-c2cc(Cl)c(Cl)c(Cl)c2Cl)c(Cl)c1 |  | 2.34
ClC1=C(Cl)C2(Cl)C3C(Cl)C(Cl)CC3C1(Cl)C2(Cl)Cl (stereo not drawn) | 4.35 | 2.26
COP(=S)(OC)Oc1ccc([N+](=O)[O-])cc1Cl | 1.89 | 0.01
Nc1c(Oc2ccc(Br)cc2)cc(O)c2c1C(=O)c1ccccc1C2=O | 2.05 | 
